According to patent US20100159007A1, “PHARMACEUTICAL COMPOSITIONS FOR TRANSMUCOSAL DELIVERY OF A THERAPEUTICALLY ACTIVE AGENT ON THE BASIS OF SUBMICRON PARTICLES” (PHARMAKODEX LIMITED, priority 2006, published 2010):
≈ marks a conversion by molar mass, not a printed value.

Tests used:
[1] = Solubility of sumatriptan in receiver fluid; format: physicochemical; settings: receiver fluid (10% ethanol in PBS), aqueous with cosolvent or surfactant or cyclodextrin; 10% ethanol in PBS (receiver fluid); read-out: maximum solubility
[2] = Stability of sumatriptan in receiver fluid; format: physicochemical; settings: 48 hours
Description: [table] […] The stability of the raw drug (sumatriptan) in the receiver fluid was determined when stored at 4° C., 25° C., 37° C. and −20° C. over a period of 48 hours.

[3] = Franz cell permeation and mass balance; format: in vitro ADME, pig
Description: [table] […] A permeation study was performed in order to investigate over what period of time a quantifiable amount of drug could be detected in the receiver fluid. Individually calibrated Franz cells with an average surface area and volume of approximately 0.6 cm^2 and 2 ml respectively were employed to determine the permeation of sumatriptan from the submicron particle formulation. The oral pig mucosa was mounted between two halves of the Franz cell with the mucosal side facing the donor compartment. The receptor compartment 22, having a clamp attachment lug 24, was filled with receiver fluid 27 (10% ethanol in PBS), stirred constantly with a PTFE-coated magnetic follower driven by submersible magnetic stirrer and maintained at 37° C. in a water bath. Approximately 5 mg of each formulation 26 was placed into the donor compartment 21 and the donor compartment was covered with Parafilm® throughout the study. Following the application of the drug formulation, the receiver fluid 27 (200 μl) was removed from the receiver compartment 22 via the sampling arm 25 after, e.g. 1, 2, 4, 6, 24 and 48 hours and analysed via HPLC. Each removed sample was replaced by an equal volume of fresh pre-warmed (37° C.) receiver fluid. At the end of the experiment, a mass balance investigation was performed as follows: A. Surface drug (S), the surface of the oral mucosa containing each formulation was wiped carefully using a sequence of dry and wet cotton buds. Collectively, the cotton buds from each Franz cell were immersed into glass vials containing 5 ml of receiver fluid. The vials were placed in an oscillating shaker and left overnight. An aliquot of 1 ml of the sample was then removed and analysed via HPLC. B. The oral mucosa was placed into a glass vial containing 5 ml of receiver fluid, and placed on a shaker at room temperature overnight. An aliquot of 1 ml of the sample was then removed and analysed via HPLC. C. Franz cell receptor compartment interface (joining section with donor) was swabbed with cotton buds. Collectively, the cotton buds from each Franz cell were immersed into a glass vial containing 5 ml receiver fluid. The vials were then placed in an oscillating shaker and left overnight. An aliquot of 1 ml of the sample was then removed and analysed via HPLC. D. Franz cell donor compartment interface (joining section with receptor) and internal face of the donor compartment was swabbed with cotton buds. Collectively, the cotton buds from each Franz cell were immersed into a glass vial containing 5 ml receiver fluid. The vials were then placed in an oscillating shaker and left overnight. An aliquot of 1 ml of the sample was then removed and analysed via HPLC. This experiment was carried out with the submicron sumatriptan formulation (a remade batch corresponding to Example 1A, batch 25#37/01) (n=6), pure unprocessed sumatriptan (n=3) and blank (n=2), i.e. cells with no formulation applied. […] Test Item 1 is the 40% sumatriptan submicron particle formulation (approximately 5 mg applied to the surface of the mucosa, n=6±SD), Test Item 2 is the unprocessed sumatriptan raw material (approximately 5 mg applied to the surface of the mucosa, n=3±SD) and the Blank is no Test Item applied (n=2).

For `CNS(=O)(=O)Cc1ccc2[nH]cc(CCN(C)C)c2c1` [sumatriptan], the solubility [1] was 1930 µg/mL (≈ 6.54 mM), the “Peak area (stability in receiver fluid)” value ([2]; 1 μg/ml, 4° C.) was 9366 and the “Peak area (stability in receiver fluid)” value ([2]; 1 μg/ml, 25° C.) was 9415. The “Peak area (stability in receiver fluid)” value ([2]; 1 μg/ml, 37° C.) was 7094, the “Peak area (stability in receiver fluid)” value ([2]; 1 μg/ml, −20° C.) was 9514 and the “Peak area (stability in receiver fluid)” value ([2]; 50 μg/ml, 4° C.) was 469462. The “Peak area (stability in receiver fluid)” value ([2]; 50 μg/ml, 25° C.) was 470115, the “Peak area (stability in receiver fluid)” value ([2]; 50 μg/ml, 37° C.) was 473418 and the “Peak area (stability in receiver fluid)” value ([2]; 50 μg/ml, −20° C.) was 467385. For the same compound, the “% recovered compared to what was applied” value ([3]; Donor) was 1.49%, the Sumatriptan recovered ([3]; Donor) was 95.9 µg and the “% recovered compared to what was applied” value ([3]; Mucosa) was 8.10%. For the same compound, the Sumatriptan recovered ([3]; Mucosa) was 522 µg, the “% recovered compared to what was applied” value ([3]; Plunger) was 5.37% and the Sumatriptan recovered ([3]; Plunger) was 346 µg. For the same compound, the “% recovered compared to what was applied” value ([3]; Receptor) was 0.28%, the Sumatriptan recovered ([3]; Receptor) was 18.2 µg and the “% recovered compared to what was applied” value ([3]; Surface) was 49.33%. For the same compound, the Sumatriptan recovered ([3]; Surface) was 3180 µg, the “% recovered compared to what was applied” value ([3]; Total amount in receiver fluid) was 29.86% and the Sumatriptan recovered ([3]; Total amount in receiver fluid, approximately 5 mg applied) was 1920 µg. The recovery ([3]; pig, 5 mg, mass balance, based on weight of formulation applied, read-out: total amount recovered compared to the theoretical recovery, Mean) was 94.4%.
